Source: patent US10206394B2, “Herbicidal compounds” (Syngenta Participations AG, priority 2014, dated 2019)
Like-named read-outs stand apart in the source and are kept apart here.

Columns and labels:
Experiment in all cases: Glasshouse assay for herbicidal activity (pre- and post-emergence), percentage phytotoxicity
Type in all cases: in vivo
[1] = test system: Echinochloa crus-galli (ECHCG); conditions: Echinochloa crus-galli
Summary of the method: (§1)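 Sow seed in standard soil in pots; apply test herbicide after 1 day (PRE) or about 12 days (POST). Grow on in the glasshouse, watering twice daily, cool-season species at 20/16 °C and warm-season at 24/18 °C. Score visible damage (0–100%) at 20 or 15 DAA respectively.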

Lolium perenne (LOLPE) = conditions: Lolium perenne
Summary of the method: as §1

Avena fatua (AVEFA) = conditions: Avena fatua
Summary of the method: as §1

[2] = test system: Alopecurus myosuroides (ALOMY); conditions: Alopecurus myosuroides
Summary of the method: as §1

[3] = post-emergence, 360 h, Rate 250 g/ha, post-emergence, assessed visually 15 DAA, 100%=total damage, 0%=no damage, read-out: Post-emergence herbicidal activity (percentage phytotoxicity) ECHCG POST
[4] = pre-emergence, 480 h, Rate 250 g/ha, pre-emergence, assessed visually 20 DAA, 100%=total damage, 0%=no damage, read-out: Pre-emergence herbicidal activity (percentage phytotoxicity) ECHCG PRE
[5] = post-emergence, 360 h, Rate 250 g/ha, post-emergence, assessed visually 15 DAA, 100%=total damage, 0%=no damage, read-out: Post-emergence herbicidal activity (percentage phytotoxicity) LOLPE POST
[6] = pre-emergence, 480 h, Rate 250 g/ha, pre-emergence, assessed visually 20 DAA, 100%=total damage, 0%=no damage, read-out: Pre-emergence herbicidal activity (percentage phytotoxicity) LOLPE PRE
[7] = post-emergence, 360 h, Rate 250 g/ha, post-emergence, assessed visually 15 DAA, 100%=total damage, 0%=no damage, read-out: Post-emergence herbicidal activity (percentage phytotoxicity) AVEFA POST
[8] = pre-emergence, 480 h, Rate 250 g/ha, pre-emergence, assessed visually 20 DAA, 100%=total damage, 0%=no damage, read-out: Pre-emergence herbicidal activity (percentage phytotoxicity) AVEFA PRE
[9] = post-emergence, 360 h, Rate 250 g/ha, post-emergence, assessed visually 15 DAA, 100%=total damage, 0%=no damage, read-out: Post-emergence herbicidal activity (percentage phytotoxicity) ALOMY POST
[10] = pre-emergence, 480 h, Rate 250 g/ha, pre-emergence, assessed visually 20 DAA, 100%=total damage, 0%=no damage, read-out: Pre-emergence herbicidal activity (percentage phytotoxicity) ALOMY PRE

Cc1cc(-c2ncc(Cl)cc2C#N)cc(C)c1C1C(=O)CC(CC(=O)NC(C)(C)C)C1=O (stereo not shown) [Compound B48]
pest or weed control at 250 g/ha ([1]; post-emergence, 360 h, 250 g/ha, post-emergence, 15 DAA, visual assessment (100%=total damage, 0%=no damage), read-out: Post-emergence herbicidal activity (percentage phytotoxicity) ECHCG POST): 100%
pest or weed control at 250 g/ha ([1]; pre-emergence, 480 h, 250 g/ha, pre-emergence, 20 DAA, visual assessment (100%=total damage, 0%=no damage), read-out: Pre-emergence herbicidal activity (percentage phytotoxicity) ECHCG PRE): 90%
pest or weed control at 250 g/ha (Lolium perenne (LOLPE); post-emergence, 360 h, 250 g/ha, post-emergence, 15 DAA, visual assessment (100%=total damage, 0%=no damage), read-out: Post-emergence herbicidal activity (percentage phytotoxicity) LOLPE POST): 90%
pest or weed control at 250 g/ha (Lolium perenne (LOLPE); pre-emergence, 480 h, 250 g/ha, pre-emergence, 20 DAA, visual assessment (100%=total damage, 0%=no damage), read-out: Pre-emergence herbicidal activity (percentage phytotoxicity) LOLPE PRE): 80%
pest or weed control at 250 g/ha (Avena fatua (AVEFA); post-emergence, 360 h, 250 g/ha, post-emergence, 15 DAA, visual assessment (100%=total damage, 0%=no damage), read-out: Post-emergence herbicidal activity (percentage phytotoxicity) AVEFA POST): 80%
pest or weed control at 250 g/ha (Avena fatua (AVEFA); pre-emergence, 480 h, 250 g/ha, pre-emergence, 20 DAA, visual assessment (100%=total damage, 0%=no damage), read-out: Pre-emergence herbicidal activity (percentage phytotoxicity) AVEFA PRE): 30%
pest or weed control at 250 g/ha ([2]; post-emergence, 360 h, 250 g/ha, post-emergence, 15 DAA, visual assessment (100%=total damage, 0%=no damage), read-out: Post-emergence herbicidal activity (percentage phytotoxicity) ALOMY POST): 80%
pest or weed control at 250 g/ha ([2]; pre-emergence, 480 h, 250 g/ha, pre-emergence, 20 DAA, visual assessment (100%=total damage, 0%=no damage), read-out: Pre-emergence herbicidal activity (percentage phytotoxicity) ALOMY PRE): 90%

Cc1cc(C)c(C2C(=O)CC(CC(=O)N(C)C(C)C)C2=O)c(C)c1 (stereo not shown) [Compound A161]
pest or weed control at 250 g/ha [1, 3]: 80%
pest or weed control at 250 g/ha [1, 4]: 100%
pest or weed control at 250 g/ha (Lolium perenne (LOLPE); [5]): 90%
pest or weed control at 250 g/ha (Lolium perenne (LOLPE); [6]): 100%
pest or weed control at 250 g/ha (Avena fatua (AVEFA); [7]): 30%
pest or weed control at 250 g/ha (Avena fatua (AVEFA); [8]): 30%
pest or weed control at 250 g/ha [2, 9]: 70%
pest or weed control at 250 g/ha [2, 10]: 20%

CCc1cc(C)cc(C)c1C1C(=O)CC(CC(=O)NCc2cccc(Cl)c2)C1=O (stereo not shown) [Compound B251]
pest or weed control at 250 g/ha ([1]; post-emergence, 360 h, POST-emergence, rate 250 g/ha, visual score 15 DAA (100%=total damage, 0%=no damage), read-out: Post-emergence herbicidal activity (percentage phytotoxicity) ECHCG POST): 100%
pest or weed control at 250 g/ha ([1]; pre-emergence, 480 h, PRE-emergence, rate 250 g/ha, visual score 20 DAA (100%=total damage, 0%=no damage), read-out: Pre-emergence herbicidal activity (percentage phytotoxicity) ECHCG PRE): 90%
pest or weed control at 250 g/ha (Lolium perenne (LOLPE); post-emergence, 360 h, POST-emergence, rate 250 g/ha, visual score 15 DAA (100%=total damage, 0%=no damage), read-out: Post-emergence herbicidal activity (percentage phytotoxicity) LOLPE POST): 100%
pest or weed control at 250 g/ha (Lolium perenne (LOLPE); pre-emergence, 480 h, PRE-emergence, rate 250 g/ha, visual score 20 DAA (100%=total damage, 0%=no damage), read-out: Pre-emergence herbicidal activity (percentage phytotoxicity) LOLPE PRE): 90%
pest or weed control at 250 g/ha (Avena fatua (AVEFA); post-emergence, 360 h, POST-emergence, rate 250 g/ha, visual score 15 DAA (100%=total damage, 0%=no damage), read-out: Post-emergence herbicidal activity (percentage phytotoxicity) AVEFA POST): 90%
pest or weed control at 250 g/ha (Avena fatua (AVEFA); pre-emergence, 480 h, PRE-emergence, rate 250 g/ha, visual score 20 DAA (100%=total damage, 0%=no damage), read-out: Pre-emergence herbicidal activity (percentage phytotoxicity) AVEFA PRE): 60%
pest or weed control at 250 g/ha ([2]; post-emergence, 360 h, POST-emergence, rate 250 g/ha, visual score 15 DAA (100%=total damage, 0%=no damage), read-out: Post-emergence herbicidal activity (percentage phytotoxicity) ALOMY POST): 100%
pest or weed control at 250 g/ha ([2]; pre-emergence, 480 h, PRE-emergence, rate 250 g/ha, visual score 20 DAA (100%=total damage, 0%=no damage), read-out: Pre-emergence herbicidal activity (percentage phytotoxicity) ALOMY PRE): 90%

CC#Cc1cc(C)c(C2C(=O)CC(CC(=O)NC3CC3)C2=O)c(C)c1 (stereo not shown) [Compound A32]
pest or weed control at 250 g/ha [1, 3]: 100%
pest or weed control at 250 g/ha [1, 4]: 100%
pest or weed control at 250 g/ha (Lolium perenne (LOLPE); [5]): 100%
pest or weed control at 250 g/ha (Lolium perenne (LOLPE); [6]): 90%
pest or weed control at 250 g/ha (Avena fatua (AVEFA); [7]): 100%
pest or weed control at 250 g/ha (Avena fatua (AVEFA); [8]): 80%
pest or weed control at 250 g/ha [2, 9]: 100%
pest or weed control at 250 g/ha [2, 10]: 70%

Cc1cc(-c2ccc(Cl)cn2)cc(C)c1C1C(=O)CC(CC(=O)N(C)C(C)(C)C)C1=O (stereo not shown) [Compound B368]
pest or weed control at 250 g/ha ([1]; post-emergence, 360 h, Rate 250 g/ha, post-emergence, visual assessment 15 DAA, 100%=total damage, 0%=no damage, read-out: Post-emergence herbicidal activity (percentage phytotoxicity) ECHCG POST): 100%
pest or weed control at 250 g/ha ([1]; pre-emergence, 480 h, Rate 250 g/ha, pre-emergence, visual assessment 20 DAA, 100%=total damage, 0%=no damage, read-out: Pre-emergence herbicidal activity (percentage phytotoxicity) ECHCG PRE): 100%
pest or weed control at 250 g/ha (Lolium perenne (LOLPE); post-emergence, 360 h, Rate 250 g/ha, post-emergence, visual assessment 15 DAA, 100%=total damage, 0%=no damage, read-out: Post-emergence herbicidal activity (percentage phytotoxicity) LOLPE POST): 100%
pest or weed control at 250 g/ha (Lolium perenne (LOLPE); pre-emergence, 480 h, Rate 250 g/ha, pre-emergence, visual assessment 20 DAA, 100%=total damage, 0%=no damage, read-out: Pre-emergence herbicidal activity (percentage phytotoxicity) LOLPE PRE): 100%
pest or weed control at 250 g/ha (Avena fatua (AVEFA); post-emergence, 360 h, Rate 250 g/ha, post-emergence, visual assessment 15 DAA, 100%=total damage, 0%=no damage, read-out: Post-emergence herbicidal activity (percentage phytotoxicity) AVEFA POST): 100%
pest or weed control at 250 g/ha (Avena fatua (AVEFA); pre-emergence, 480 h, Rate 250 g/ha, pre-emergence, visual assessment 20 DAA, 100%=total damage, 0%=no damage, read-out: Pre-emergence herbicidal activity (percentage phytotoxicity) AVEFA PRE): 90%
pest or weed control at 250 g/ha ([2]; post-emergence, 360 h, Rate 250 g/ha, post-emergence, visual assessment 15 DAA, 100%=total damage, 0%=no damage, read-out: Post-emergence herbicidal activity (percentage phytotoxicity) ALOMY POST): 90%
pest or weed control at 250 g/ha ([2]; pre-emergence, 480 h, Rate 250 g/ha, pre-emergence, visual assessment 20 DAA, 100%=total damage, 0%=no damage, read-out: Pre-emergence herbicidal activity (percentage phytotoxicity) ALOMY PRE): 90%
